Test results published in ChEMBL document CHEMBL1201862, “PubChem BioAssay data set” (2004).
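Cultured in 96-well plates, cells were exposed to test compound for 48 hours across five concentrations. GI50: concentration for 50% inhibition of growth.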 Calls of active or inactive are those of the source. No stated cut-off is given here; in the data, active = GI50 up to about 1.1 µM and inactive = higher.

What was measured:
Test in all cases: growth of human tumour cells (NCI), 48 h
[1] = system: SF-295
[2] = system: NCI/ADR-RES
[3] = system: Malme-3M
[4] = system: SK-MEL-2
[5] = system: SR
[6] = system: PC-3
[7] = system: HCC 2998
[8] = system: HCT-15
[9] = system: KM12
[10] = system: HCT-116
[11] = system: RPMI-8226
[12] = system: SF-268
[13] = system: CAKI-1
[14] = system: SK-MEL-5
[15] = system: COLO 205
[16] = system: MDA-MB-435
[17] = system: SNB-19
[18] = system: DU-145
[19] = system: OVCAR-3
[20] = system: HOP-92
[21] = system: OVCAR-8
[22] = system: MDA-MB-231
[23] = system: SW-620
[24] = system: MDA-N
[25] = system: SNB-75
[26] = system: 786-0
[27] = system: RXF 393
[28] = system: A498
[29] = system: UO-31
[30] = system: OVCAR-4
[31] = system: HOP-62
[32] = system: NCI-H460
[33] = system: T47D
[34] = system: UACC-62
[35] = system: UACC-257
[36] = system: M14
[37] = system: TK-10
[38] = system: MOLT-4
[39] = system: IGROV-1
[40] = system: SN12C
[41] = system: HL-60
[42] = system: Hs-578T
[43] = system: K562
[44] = system: NCI-H226
[45] = system: CCRF-CEM
[46] = system: SK-MEL-28
[47] = system: A549
[48] = system: LOX IMVI
[49] = system: SF-539
[50] = system: SK-OV-3
[51] = system: HT-29
[52] = system: MCF7
[53] = system: NCI-H23
[54] = system: BT-549
[55] = system: ACHN
[56] = system: OVCAR-5
[57] = system: EKVX
[58] = system: NCI-H522
[59] = system: U-251

O=C1OCC2=C1C(c1ccc(Cl)cc1)c1cc3c(cc1O2)OCO3 (centres undefined)
GI50 [1]: 2.88 µM (inactive)
GI50 [2]: 2.64 µM (inactive)
GI50 [3]: 6.41 µM (inactive)
GI50 [4]: 3.2 µM (inactive)
GI50 [5]: 3.03 µM (inactive)
GI50 [6]: 3.62 µM (inactive)
GI50 [7]: 4.1 µM (inactive)
GI50 [8]: 2.83 µM
GI50 [9]: 3.45 µM (inactive)
GI50 [10]: 3 µM (inactive)
GI50 [11]: 3.46 µM (inactive)
GI50 [12]: 7.43 µM (inactive)
GI50 [13]: 1.66 µM (inactive)
GI50 [14]: 3.76 µM (inactive)
GI50 [15]: 5.55 µM (inactive)
GI50 [16]: 0.778 µM (active)
GI50 [17]: 6.97 µM (inactive)
GI50 [18]: 4.15 µM (inactive)
GI50 [19]: 3.72 µM (inactive)
GI50 [20]: > 35.8 µM (inactive)
GI50 [21]: 9.12 µM (inactive)
GI50 [22]: > 24.3 µM (inactive)
GI50 [23]: 2.88 µM (inactive)
GI50 [24]: 0.902 µM (active)
GI50 [25]: 2.49 µM (inactive)
GI50 [26]: 4.65 µM (inactive)
GI50 [27]: 4.06 µM (inactive)
GI50 [28]: 8.24 µM (inactive)
GI50 [29]: 10.1 µM (inactive)
GI50 [30]: 84.9 µM (inactive)
GI50 [31]: 3.4 µM (inactive)
GI50 [32]: 3.34 µM (inactive)
GI50 [33]: 4.3 µM (inactive)
GI50 [34]: 4.36 µM (inactive)
GI50 [35]: > 21.8 µM (inactive)
GI50 [36]: 4.08 µM (inactive)
GI50 [37]: 8.05 µM (inactive)
GI50 [38]: 2.74 µM (inactive)
GI50 [39]: 3.56 µM (inactive)
GI50 [40]: 10.5 µM (inactive)
GI50 [41]: 2.21 µM (inactive)
GI50 [42]: 4.15 µM (inactive)
GI50 [43]: 1.82 µM (inactive)
GI50 [44]: > 100 µM (inactive)
GI50 [45]: 2.52 µM (inactive)
GI50 [46]: 6.21 µM (inactive)
GI50 [47]: 4.79 µM (inactive)
GI50 [48]: 3.66 µM (inactive)
GI50 [49]: 2.69 µM (inactive)
GI50 [50]: 2.83 µM (inactive)
GI50 [51]: 3.72 µM (inactive)
GI50 [52]: 3.16 µM (inactive)
GI50 [53]: 6.9 µM (inactive)
GI50 [54]: 3.37 µM (inactive)
GI50 [55]: 6.21 µM (inactive)
GI50 [56]: > 23.9 µM (inactive)
GI50 [57]: 21 µM (inactive)

COc1ccc(-c2coc3c4c(ccc3c2=O)OCO4)cc1OC
GI50 [58]: 56.9 µM (inactive)
GI50 [1]: 27.9 µM (inactive)
GI50 [2]: 35.8 µM (inactive)
GI50 [4]: 65.3 µM (inactive)
GI50 [5]: 8.87 µM (inactive)
GI50 [6]: > 100 µM (inactive)
GI50 [7]: > 100 µM (inactive)
GI50 [8]: 18 µM
GI50 [9]: 83.6 µM (inactive)
GI50 [10]: > 100 µM (inactive)
GI50 [11]: > 100 µM (inactive)
GI50 [12]: 34 µM (inactive)
GI50 [13]: 91.6 µM (inactive)
GI50 [14]: 55.5 µM (inactive)
GI50 [15]: > 100 µM (inactive)
GI50 [16]: 5.87 µM (inactive)
GI50 [17]: 29 µM (inactive)
GI50 [18]: > 100 µM (inactive)
GI50 [19]: 23.8 µM (inactive)
GI50 [20]: 36.3 µM (inactive)
GI50 [21]: 38 µM (inactive)
GI50 [22]: 45.4 µM (inactive)
GI50 [23]: > 100 µM (inactive)
GI50 [24]: 5.79 µM (inactive)
GI50 [25]: 38.2 µM (inactive)
GI50 [26]: 35.4 µM (inactive)
GI50 [28]: > 100 µM (inactive)
GI50 [29]: 99.8 µM (inactive)
GI50 [30]: 22.5 µM (inactive)
GI50 [31]: 36.7 µM (inactive)
GI50 [32]: 57.8 µM (inactive)
GI50 [33]: > 100 µM (inactive)
GI50 [34]: 44.9 µM (inactive)
GI50 [35]: > 100 µM (inactive)
GI50 [36]: > 100 µM (inactive)
GI50 [37]: 63 µM (inactive)
GI50 [38]: > 100 µM (inactive)
GI50 [39]: 44.4 µM (inactive)
GI50 [40]: > 100 µM (inactive)
GI50 [41]: 14.3 µM (inactive)
GI50 [42]: 26.4 µM (inactive)
GI50 [43]: 7.6 µM (inactive)
GI50 [44]: 76.7 µM (inactive)
GI50 [59]: 37.2 µM (inactive)
GI50 [45]: > 100 µM (inactive)
GI50 [46]: > 100 µM (inactive)
GI50 [47]: 55.6 µM (inactive)
GI50 [48]: 98.2 µM (inactive)
GI50 [49]: 40.6 µM (inactive)
GI50 [50]: 24.4 µM (inactive)
GI50 [51]: > 100 µM (inactive)
GI50 [52]: 91 µM (inactive)
GI50 [53]: 25 µM (inactive)
GI50 [54]: 14.9 µM (inactive)
GI50 [55]: 49.2 µM (inactive)
GI50 [56]: > 100 µM (inactive)
GI50 [57]: 38.5 µM (inactive)
